Experimental data reported in article PMC12603070, “A high-throughput screening approach to discover potential colorectal cancer chemotherapeutics: repurposing drugs to identify novel disruptors of 14-3-3 proteins” (Cell Death & Disease, 2025).
pKd: −log10 of the molar value.

Key:
14-3-3ζ = target: T1, 14-3-3ζ (Homo sapiens, UniProt P63104); experiment: Isothermal titration calorimetry (ITC) with purified 14-3-3ζ; format: binding; settings: 750-1,000 μM ligand, 70 μM protein, 1-4% DMSO
T1 construct: made in house; host or cells: Escherichia coli BL21 LOBSTR-RIL
T1 sequence (P63104 1-245): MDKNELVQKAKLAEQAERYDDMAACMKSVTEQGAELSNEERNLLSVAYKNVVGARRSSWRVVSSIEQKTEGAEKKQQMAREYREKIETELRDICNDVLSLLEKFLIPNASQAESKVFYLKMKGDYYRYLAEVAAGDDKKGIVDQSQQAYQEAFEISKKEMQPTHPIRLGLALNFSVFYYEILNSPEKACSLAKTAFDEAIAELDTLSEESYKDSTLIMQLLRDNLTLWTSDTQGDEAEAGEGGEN
Procedure: application to isothermal titration calorimetry (ITC) studies.
ITC experiments were performed, but the solubility incompatibility gave unclear data, with a […]
All ITC experiments were conducted at 750-1,000 μM of the ligand (in the syringe: titrant), with 70 μM of protein in the cell: titrand); each injection introduced approximately 4 nmol of ligand. All experiments were conducted at 1 -4% DMSO based on drug’s solubility. […]

His-14-3-3ζ = target: T2, His-14-3-3ζ (Homo sapiens, UniProt P63104); experiment: Surface plasmon resonance (SPR) on immobilized His-14-3-3ζ; format: binding
T2 construct: made in house; host or cells: Escherichia coli BL21 LOBSTR-RIL
T2 sequence (P63104 1-245): T1 sequence (P63104 1-245)
Procedure: The published protocol of Higuchi & Ottmann as followed with modifications to express 14-3-3ζ [44]. Escherichia coli BL21 LOBSTR-RIL cells were transformed with a plasmid encoding His-14-3-3ζ. The transformed cells were grown in TB medium containing appropriate antibiotic at 37 °C with shaking at 200 rpm until the culture reached an optical density of 0.6–0.8 at 600 nm (OD600). Protein expression was induced by the addition of isopropyl β-D-1-thiogalactopyranoside to a final concentration of 0.4 mM. Subsequently, the temperature was decreased to 16 °C and the culture incubated for another 16 h. Cells were harvested by centrifugation at 7000 × g for 20 min at 21 °C. The supernatant was discarded, and the cell pellet containing 14-3-3ζ was mixed and resuspended in lysis buffer (50 mM Tris, pH 7.80), 500 mM NaCl, 5 mM imidazole, 5% glycerol, 1 mM PMSF & 1 mM Benzamidine. Cells were lysed by sonication on ice using a probe sonicator (20 cycles of 10 s on, 20 s off, amplitude 70%). The lysate was centrifuged at 30,000 × g for 30 min at 4 °C to remove cell debris. The supernatant was collected for further purification. The 14-3-3ζ was isolated from the lysate by affinity chromatography (Ni-NTA beads, Qiagen). For further purification, the eluant was subjected to size exclusion chromatography using a Superdex 75 gel filtration column (HiLoad 16/600, GE Healthcare), pre-equilibrated with SEC buffer (20 mM Tris, pH 7.5, 150 mM NaCl, 1 mM TCEP). The protein solution was concentrated by ultrafiltration, flash frozen, and stored at −80 °C.
The general protocol for evaluating 14-3-3ζ was adapted from Hartman et al. and modified for our instrument and sensors. The SPR experiments were performed using a Open surface plasmon resonance instrument (OpenSPR^TM, Nicoya, Kitchener-Waterloo, Canada), and high sensitivity-nitrilotriacetic acid (HS-NTA) sensors. The sensor chip surface was first activated with 40 mM of NiCl2 at a flow rate of 20 μL/min using 20 mM HEPES pH 7.8, 150 mM NaCl and 1% DMSO as the running buffer. All running buffers were filtered and degassed prior to use. 100 μg/mL His-14-3-3ζ protein in 20 mM HEPES pH 7.8, 150 mM NaCl and 1% DMSO was injected at 8 μL/min flow rate for 800 s contact time and immobilized until the instrument registered 2900–3500 RU (activation and protein immobalization spectrograms are provided as Supplementary Fig. 10). Drugs were dissolved in DMSO and were diluted with 20 mM HEPES pH 7.8, 150 mM NaCl (final DMSO concentration of 1% v/v) and were injected at a flow rate of 50 μL/min. Single-cycle kinetics were applied for KD evaluation and binding affinity using TraceDrawer v.1.8.1 (Ridgeview Instruments AB).

## CCCCCCOC(=O)c1ccc(Nc2c([N+](=O)[O-])cc(C(=O)O)cc2[N+](=O)[O-])cc1 [BV01, 4-((4-((hexyloxy)carbonyl)phenyl)amino)-3,5-dinitrobenzoic acid]
14-3-3ζ
  Binding by ITC: weak sign of binding
His-14-3-3ζ; SPR curve at 0.005 mM ligand
  Bmax ([Signal (RU)]): 100.98 RU
His-14-3-3ζ; SPR curve at 0.007 mM ligand
  Bmax ([Signal (RU)]): 147.7 RU
His-14-3-3ζ; SPR curve at 0.03 mM ligand
  Bmax ([Signal (RU)]): 198.6 RU
His-14-3-3ζ; SPR curve at 0.05 mM ligand
  Bmax ([Signal (RU)]): 257.38 RU
His-14-3-3ζ; SPR curve at 0.07 mM ligand
  Bmax ([Signal (RU)]): 320.07 RU
His-14-3-3ζ; SPR dissociation rate, value repeated per curve
  kd: 0.0112 s⁻¹
His-14-3-3ζ; SPR fit parameter, per curve
  BI ([Signal (RU)]): 0.1 RU
His-14-3-3ζ; SPR, immobilized His-14-3-3ζ, single-cycle kinetics, 1% DMSO
  pKd: 5.20
His-14-3-3ζ; pH 7.8, read-out: ka
  kon: 1770 M⁻¹ s⁻¹
